Measurements reported in US20230248646A1 (The General Hospital Corporation, priority 2013, published 2023).
Where two headings read alike, the source gives them in different places. Blank lines part the entries; values can stand above or below the compound they belong to.

What was measured:
[1] = Initial characterization of manufactured cromolyn (particle size distribution); format: physicochemical
From the text: Cromolyn capsules for inhalation were manufactured by Pharmaterials, Ltd (Reading, UK). […] Therefore, there was a need to use hydrophobic excipient in the powder formulation to improve product performance and stability. Addition of hydrophobic excipient offers inherent resistance of dry powder inhalation formulations to negative effect of moisture to such formulations. Magnesium stearate was chosen as suitable hydrophobic excipient since it is commercially used in dry powder inhaler (DPI) products. […] Lactose monohydrate was additionally used as diluent for this case.

[2] = NGI impactor fractions with AZHALER dry powder inhaler; format: physicochemical; settings: per 17.1 mg of API
From the text: AZHALER. […] It is a single-dose device used to deliver the inhalation powder to the patient's lung in form of an aerosol. The inhaler consists of a container, a valve, and a mouthpiece. In this study the low resistance model (80 L airflow resistance) was used. These device reaches a pressure drop of 4 kPa at c.80 L/min, and is suitable for use on a wide range of patient population i.e. including elderly, children and patients with severe respiratory impairment

[3] = Phase 1 pharmacokinetic study of inhaled cromolyn, plasma; format: in vivo, human; settings: for Tmax / Vd/F / AUC(0-inf) / Cmax / half-life: human; for half-life: read-out: apparent t1/2 range
[4] = NGI cascade impactor test, single-use passive dry powder inhaler ([…], Aespira); format: physicochemical; settings: NGI approx. 100 L/min for 2.4 seconds
Protocol: Delivery of cromolyn by a single-use passive dry powder inhaler device was assessed. The passive inhaler device included an active particle dispersion mechanism ([…]) involving breath-driven beating of a mesh package containing the powder to be delivered. A blend containing disodium cromoglycate (DSCG) (Cambrex) and Lactohale LH300 lactose (Friesland Foods Domo) was prepared by blending in an Alpine Picoline high shear mixer (module Picomix) (Hosokawa Alpine, Augsburg, Germany) at a speed of 4000 rpm for 3 minutes. The blend contained 80:20 (wt/wt.) DSCG:lactose. Neat DSCG also was tested.

[5] = NGI cascade impactor test, active dry powder inhaler with piezoelectric vibrator; format: physicochemical; settings: NGI approx. 30 L/min for 2 seconds
From the text: The inhaler device included injection molded plastic components, electronics, a battery, and drug filled blisters. The inhaler included a lever arm, upon actuation of which the blister was placed in contact with a piezoelectric vibrator within the device and then pierced by needles. The inhaler also included an airflow sensor which automatically turned on the piezoelectric vibrator after a minimum inspiratory flow rate was exceeded. Activation of the piezoelectric vibrator […] powder particles and aerosolized them out of the blister and into the inspiratory airstream. The inhaler included visual feedback at the start of dosing and as confirmation of successful completion of dosing, thereby facilitating improved patient compliance. […] A blend containing disodium cromoglycate (DSCG) (Cambrex) and lactose monohydrate (DFE Pharma) (grade: lactohale LH201) was prepared by blending at a speed of 150 rpm for 15 minutes. The blend contained 60:40 (wt/wt.) DSCG:lactose. Neat DSCG also was tested.

[6] = 17.1 mg single inhaled dose, mean
[7] = 34.2 mg double inhaled dose, mean
[8] = inhaled or intranasal, 17.1 mg, 17.1 mg single inhaled dose, mean
[9] = inhaled or intranasal, 34.2 mg, 34.2 mg double inhaled dose, mean

- initial characterization of the material ([1]; manufactured cromolyn): crystalline and hygroscopic material
- particle size distribution d50 ([1]; micronized cromolyn): < 5 μm
- particle size distribution d90 ([1]; micronized cromolyn): < 10 μm
- cromolyn in the impactor fractions with <3 micron size particles (NGI stage 4-MOC) [2]: 4 to 5 mg
- Cl/F [3, 6]: 108532.36 mL/h
- T0.5 [3, 6]: 1.75 ± 0.9 h
- T0.5 ([3]; 17.1 mg single inhaled dose, mean, listed as Cromolyn): 1.75 h
- Cl/F ([3]; 17.1 mg, Max): 183363.7 mL/h
- T0.5 ([3]; 17.1 mg, Max): 3.7 h
- T0.5 ([3]; 17.1 mg, Min): 0.6, h
- Cl/F ([3]; 17.1 mg, median): 82640.18 mL/h
- T0.5 ([3]; 17.1 mg, median): 1.56 h
- Cl/F [3, 7]: 132178.06 mL/h
- T0.5 [3, 7]: 1.91 ± 0.7 h
- T0.5 ([3]; 34.2 mg double inhaled dose, mean, listed as Cromolyn): 1.91 h
- Cl/F ([3]; 34.2 mg, median): 130382.20 mL/h
- T0.5 ([3]; 34.2 mg, median): 1.80 h
- Tmax [3, 8]: 22.8 min
- Vd/F [3, 8]: 137 L
- AUC(0-inf) ([3]; inhaled or intranasal, 17.1 mg, 17.1 mg single inhaled dose, mean, read-out: AUC0-inf): 196 ± 97.3 ng·h/mL
- Cmax ([3]; inhaled or intranasal, 17.1 mg, 17.1 mg single inhaled dose, mean, read-out: Cmax): 46.7 ng/mL
- half-life ([3]; inhaled or intranasal, 17.1 mg): 36 to 222 min
- AUC(0-inf) ([3]; inhaled or intranasal, 17.1 mg, single (17.1 mg) dose inhalation, range, read-out: AUC0-inf range): 93.3 to 287 ng·h/mL
- Cmax ([3]; inhaled or intranasal, 17.1 mg, single dose (17.1 mg) inhalation, mean ± SD, read-out: average Cmax): 46.7 ± 33 ng/mL
- Cmax ([3]; inhaled or intranasal, 17.1 mg, single dose (17.1 mg) inhalation, range, read-out: Cmax range): 14 to 133 ng/mL
- Tmax [3, 9]: 22.2 min
- Vd/F [3, 9]: 330 L
- AUC(0-inf) ([3]; inhaled or intranasal, 34.2 mg, 34.2 mg double inhaled dose, mean, read-out: AUC0-inf): 285 ± 91.3 ng·h/mL
- Cmax ([3]; inhaled or intranasal, 34.2 mg, 34.2 mg double inhaled dose, mean, read-out: Cmax): 96.8 ng/mL
- AUC(0-inf) ([3]; inhaled or intranasal, 34.2 mg, double (34.2 mg) dose inhalation, range, read-out: AUC0-inf range): 155 to 443 ng·h/mL
- Cmax ([3]; inhaled or intranasal, 34.2 mg, double dose (34.2 mg) inhalation, mean ± SD, read-out: average Cmax): 96.8 ± 46.2 ng/mL
- Cmax ([3]; inhaled or intranasal, 34.2 mg, double dose (34.2 mg) inhalation, range, read-out: Cmax range): 36.1 to 236 ng/mL
- half-life ([3]; inhaled or intranasal, double dose (34.2 mg) inhalation, range): 42 to 228 min
- Tmax ([3]; inhaled, 17.1 mg, Max): 60 min
- Vd/F ([3]; inhaled, 17.1 mg, Max): 144 L
- AUC(0-inf) ([3]; inhaled, 17.1 mg, Max, read-out: AUC0-inf): 287 ng·h/mL
- Cmax ([3]; inhaled, 17.1 mg, Max, read-out: Cmax): 133 ng/mL
- Tmax ([3]; inhaled, 17.1 mg, Min): 6 min
- Vd/F ([3]; inhaled, 17.1 mg, Min): 134 L
- AUC(0-inf) ([3]; inhaled, 17.1 mg, Min, read-out: AUC0-inf): 93.3 ng·h/mL
- Cmax ([3]; inhaled, 17.1 mg, Min, read-out: Cmax): 14 ng/mL
- Tmax ([3]; inhaled, 17.1 mg, median): 15 min
- Vd/F ([3]; inhaled, 17.1 mg, median): 134 L
- AUC(0-inf) ([3]; inhaled, 17.1 mg, median, read-out: AUC0-inf): 207 ng·h/mL
- Cmax ([3]; inhaled, 17.1 mg, median, read-out: Cmax): 36.2 ng/mL
- Tmax ([3]; inhaled, 34.2 mg, median): 13.8 min
- Vd/F ([3]; inhaled, 34.2 mg, median): 264 L
- AUC(0-inf) ([3]; inhaled, 34.2 mg, median, read-out: AUC0-inf): 262 ng·h/mL
- Cmax ([3]; inhaled, 34.2 mg, median, read-out: Cmax): 76.5 ng/mL
Compound: O=C(O)c1cc(=O)c2c(OCC(O)COc3cccc4oc(C(=O)O)cc(=O)c34)cccc2o1 [cromolyn, 5,5′-(2-hydroxypropane-1,3-diyl)bis(oxy)bis(4-oxo-4H-chromene-2-carboxylic acid)]

- Fine Particle Dose <5 μm [4]: 430 µg
- Fine Particle Dose <5 μm (% of initial dose) [4]: 9 % of initial dose
- MMAD [4]: >4 μm
- Stages 4 to 8 [4]: 150 µg
- Stages 4 to 8 (% of initial dose) [4]: 3 % of initial dose
- Fine Particle Dose <5 μm [5]: 2321 µg
- Fine Particle Fraction <5 μm [5]: 59 % of delivered dose
- Stages 4 to 8 [5]: 2098 µg
- Stages 4 to 8 (% of initial dose) [5]: 42 % of initial dose
Compound: O=C(O)c1cc(=O)c2c(OCC(O)COc3cccc4oc(C(=O)O)cc(=O)c34)cccc2o1 [DSCG:lactose 100:0, disodium cromoglycate]
